# Entries after “also recorded” stand apart in the source; their conditions may differ.
# Assays:
# [1] = target: T1, human MAOA (Homo sapiens, UniProt P21397); experiment: Purified MAOA, Amplex Red/horseradish peroxidase coupled assay; type: biochemical; conditions: 70 nM MAOA, 1 mM kynuramine
# T1 construct: made in house; host or cells: Pichia pastoris
# T1 sequence (P21397 1-527): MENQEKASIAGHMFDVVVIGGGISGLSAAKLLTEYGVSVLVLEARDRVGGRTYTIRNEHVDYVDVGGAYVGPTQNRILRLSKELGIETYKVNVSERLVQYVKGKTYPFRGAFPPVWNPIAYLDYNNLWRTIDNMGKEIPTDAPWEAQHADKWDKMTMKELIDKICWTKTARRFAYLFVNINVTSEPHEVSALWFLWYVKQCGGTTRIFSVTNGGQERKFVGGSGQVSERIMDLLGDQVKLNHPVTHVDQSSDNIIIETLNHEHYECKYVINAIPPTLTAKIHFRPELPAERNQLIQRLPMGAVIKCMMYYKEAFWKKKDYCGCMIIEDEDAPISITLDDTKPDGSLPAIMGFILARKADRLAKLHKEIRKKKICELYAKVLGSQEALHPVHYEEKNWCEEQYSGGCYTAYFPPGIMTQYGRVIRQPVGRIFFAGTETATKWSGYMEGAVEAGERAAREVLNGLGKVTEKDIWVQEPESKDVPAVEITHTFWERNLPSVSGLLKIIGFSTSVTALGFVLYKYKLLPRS
# Method: (§1) IC50 values on human MAOA and human MAOB were determined using the Amplex Red/horseradish peroxidase coupled assay. […] Measurements were performed using a ClarioStar plate reader (excitation 572 nm and emission 583 nm) (BMG Labtech). IC50 values were obtained by fitting the percentage of inhibition versus log(inhibitor concentration) using GraphPad software 7.0. The covalent modification of the flavin upon the reaction with the propargylamine-containing inhibitors was monitored spectrophotometrically using a diode array UV/visible spectrophotometer (Agilent Technologies). […] The cofactor covalent modification was monitored over time following the shift of the enzyme-bound flavin (peaks at 370 and 456 nm) to 410 nm (ε410 = 23,500 M^–1 cm^–1) (Figure S10).
# [2] = target: T2, human MAOB (Homo sapiens, UniProt P27338); experiment: Spectrophotometric monitoring of MAOB flavin covalent modification; type: binding
# T2 construct: made in house; host or cells: Pichia pastoris
# T2 sequence (P27338 1-520): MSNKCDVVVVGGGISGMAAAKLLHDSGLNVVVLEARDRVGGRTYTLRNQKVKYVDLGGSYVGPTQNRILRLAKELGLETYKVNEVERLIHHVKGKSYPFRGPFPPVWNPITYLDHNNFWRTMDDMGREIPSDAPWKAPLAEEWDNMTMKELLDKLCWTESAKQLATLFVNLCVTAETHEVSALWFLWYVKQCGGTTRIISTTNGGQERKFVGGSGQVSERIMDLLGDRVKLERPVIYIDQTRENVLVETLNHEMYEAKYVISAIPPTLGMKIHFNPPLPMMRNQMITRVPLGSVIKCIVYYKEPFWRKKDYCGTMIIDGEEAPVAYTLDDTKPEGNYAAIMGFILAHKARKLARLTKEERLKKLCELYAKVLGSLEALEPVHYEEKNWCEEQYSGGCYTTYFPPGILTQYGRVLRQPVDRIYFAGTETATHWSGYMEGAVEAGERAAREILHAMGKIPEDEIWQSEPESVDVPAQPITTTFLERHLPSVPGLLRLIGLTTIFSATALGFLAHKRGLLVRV
# Method: as §1
# [3] = tested on: BV2 cells; experiment: MTT viability assay in BV2 cells; type: cell-based, murine; conditions: 10 μM, LPS/IFN-γ stimulation, 48 h
# Method: BV2 murine microglial cells were cultured in DMEM supplemented with 10% heat-inactivated FBS, 100 IU/mL penicillin G, 100 mg/mL streptomycin, and 2.5 mg/mL amphotericin B and grown at 37 °C in 5% CO2 and a humidified atmosphere. […] After 30 min, LPS 100 ng/mL and IFN-γ 20 ng/mL were added to the medium for an additional 48 h.
# Cell viability was determined by the MTT assay. Briefly, MTT (dissolved in PBS with a final concentration of 0.5 mg/mL) was added to the medium culture. After 2 h of incubation, the cells were mixed with DMSO and shaken for 10 min. Finally, the absorption of the samples was read by regulating the 570 nm filter as the main wavelength and the 630 nm filter as the referenced wavelength. The blank was subtracted from all samples to obtain pure cellular absorption. Results are expressed as the percentage of cell survival, taking 100% of the cells treated with the vehicle.
# [4] = Mass spectrometric analysis of GSH reactivity; conditions: GSH 10 µM and compound 10 µM (1:1), ammonium acetate 200 mM, pH 7.4
# Method: Reactivity between 9a and GSH was measured via mass spectrometry on a Q Exactive UHMR hybrid quadrupole-Orbitrap mass spectrometer (Thermo Fisher) with positive polarity. The instrument parameters used for MS spectra collection were the following: capillary voltage, 1.2 kV; scan range from 350 to 2000 m/z; HCD collision voltage, 0 V; source fragmentation, 0 V; in-source trapping, 0 V. The ion transfer optics was set as follows: injection flatapole, 5 V; inner-flatapole lens, 4 V; bent flatapole, 2 V; transfer multipole, 0 V. The resolution of the instrument was 200,000 at m/z = 400, the nitrogen pressure in the HCD cell was maintained at approximately 9.8 × 10^–11 mbar, and the source temperature was kept at 100 °C. Solutions for flow injection analysis were constituted by dissolving each compound in LC-MS-grade MeOH.
# [5] = tested on: BV2 cells; experiment: qRT-PCR of iNOS, IL-1β and IL-6 transcripts in BV2 cells; type: cell-based, murine
# Method: BV2 murine microglial cells were cultured in DMEM supplemented with 10% heat-inactivated FBS, 100 IU/mL penicillin G, […] streptomycin, and […] amphotericin B and grown at 37 °C in 5% CO2 and a humidified atmosphere. […]
# BV2 cells were lysed in a Trizol reagent for isolation of RNA. A reverse transcription reaction was performed in a thermocycler (MJMini personal thermal cycler; Biorad) using an IScript Reverse Transcription Supermix (Biorad) according to the manufacturer’s protocol, under the following conditions: incubation at 25 ° C for 5 min, reverse transcription at 42 ° C for 30 min, and inactivation at 85 ° C for 5 min. Real-time PCR (rtPCR) was carried out in an I-Cycler IQ Multicolor rtPCR detection system (Biorad) using a SsoFast EvaGreen Supermix (Biorad) according to the manufacturer’s instructions. The PCR protocol consisted of 40 cycles of denaturation at 95 ° C for 30 s and annealing/extension at 60 ° C for 30 s. For quantification analysis, the comparative threshold cycle (Ct) method was used. The Ct values from each gene were normalized to the Ct value of GAPDH in the same RNA samples. Relative quantification was performed using the 2^–ΔΔCt method (Schmittgen and Livak, 2008) and expressed as a fold change in arbitrary values. Primers used are as follows: • iNOS fw: […]; rev: […]. • IL-1β fw: […]; rev: […]. • IL-6 fw: […]; rev: […].
# [6] = 10 μM, LPS/IFN-γ, 48 h compound treatment
SMILES,IC50 [1],IC50 Purified MAOA [1],covalent flavin adduct with MAOB (absorbance shift to 410 nm) ([2]; 5-fold molar excess over 20 μM protein),MAOB cofactor modified at the final time point ([2]; after 30 min of incubation),calculated inhibited fraction of MAOB ([2]; after 30 min of incubation),BV2 cell viability [3],adduct formation with glutathione [4],"decrease in IL-1β mRNA level [5, 6]","decrease in IL-6 mRNA level [5, 6]","decrease in iNOS mRNA level [5, 6]","effects on iNOS, IL-1β and IL-6 mRNA without inhibitor pretreatment ([5]; cells pre-stimulated with LPS/IFN-γ for 24h, then 10 µM compound for 24 h)"
"C#CCNC(=O)c1ccc(Cn2nnc3c(Sc4nc5ccccc5o4)ncnc32)cc1 [Compound 8b, (4-((7-Benzo[d]oxazol-2-yl-thio)-3H-[1,2,3]triazole[4,5-d]pyrimidin-3-yl)methyl)-N-(prop-2-in-1-yl)benzamide]",41.6 ± 3.7 µM,,,,,,,,,,
"CCCNC(=O)c1ccc(Cn2nnc3c(Sc4nc5ccccc5o4)ncnc32)cc1 [Compound 8a, (4-((7-Benzo[d]oxazol-2-yl-thio)-3H-[1,2,3]triazole[4,5-d]pyrimidin-3-yl)methyl)-N-(propyl)benzamide]",> 100 µM,ineffective; also recorded: Not detected,,,,,,,,,
"C#CCN(C)Cc1ccc(Cn2nnc3c(Sc4nc5ccccc5o4)ncnc32)cc1 [Compound 9a, N-(4-((7-(Benzo[d]oxazol-2-ylthio)-3H-[1,2,3]triazolo[4,5-d]pyrimidin-3-yl)methyl)benzyl)-N-methylprop-2-yn-1-amine]",59 ± 5.9 µM,,formation of a covalent N-methyl-N-propargylamine-flavin adduct,18.4 µM,91.8%,negligible effects on cells viability,readily reacted with GSH; also recorded: able to form an adduct with glutathione,4 fold,4 fold,over 10 fold,negligible
